Source: patent US11274095B2, “Modulators of methyl modifying enzymes, compositions and uses thereof” (Constellation Pharmaceuticals, Inc., priority 2018, dated 2022)

Columns and labels:
PRC2 containing wt EZH2 = PRC2 containing wt EZH2 (Homo sapiens (Human), UniProt Q15910); assay: EZH2 biochemical assay (IC50), 3H-SAM incorporation into biotinylated H3 peptide; conditions: 30 pM PRC2 with wt EZH2, 3-5 h pre-incubation
Experimental: EZH2 biochemical assay (IC50): Compound potencies were assessed through incorporation of ^3H-SAM into a biotinylated H3 peptide. Specifically, 30 pM PRC2 containing wt EZH2 (pentameric complex prepared in-house) was pre-incubated with 450 nM SAM, 450 nM ^3H-SAM, 2 μM H3K27me3 activating peptide (H2N-RKQLATKAAR(Kme3)SAPATGGVKKP-amide) and compounds (as 10 point duplicate dose response titrations in DMSO, final assay 0.8% DMSO (v/v)) for 3-5 h in 50 mM Tris (pH 8.5), 1 mM DTT, 0.07 mM Brij-35, 0.1% BSA, and 0.8% DMSO in a total volume of 12.5 μl. Reaction was initiated with biotinylated H3 substrate peptide (H2N-RKQLATKAAR(Kmel)SAPATGGVKKP-NTPEGBiot) as a 2 μM stock in 12.5 μl of buffer and allowed to react at room temperature for 18-22 h. Quenching was accomplished by addition of 20 μl of STOP solution (50 mM Tris (pH 8.5), 200 mM EDTA, 2 mM SAH). 35 μl of the quenched solution was transferred to streptavidin coated FlashPlates (PerkinElmer), incubated 1-2 h, washed, and read in a TopCount Reader (PerkinElmer). IC50s were calculated in Genedata Screener using non-linear least square four parameter fits, where the four parameters were IC50, Hill slope, pre-transitional baseline (0% INH), and post-transitional baseline (100% INH).

H3K27me3 in Hela cells = assay: H3K27me3 Alpha Hela Assay (AlphaLISA); format: cell-based
Experimental: H3K27me3 Alpha Hela Assay (AlphaLISA). Ten different doses of each test compound (in a series of 3-fold dilutions) were plated in duplicate 384-well tissue culture treated plates (Catalog #6007680; Perkin Elmer, Waltham, Mass.). Hela cells grown in culture were trypsinized and counted using a Countess® cell counter (Catalog #C10281; Life Technologies, Grand Island, N.Y.). Cell were diluted to 67,000 cells per mL in10% DMEM (Catalog #10569-010 Life Technologies, Grand Island, N.Y.) and 15 μL (1,000 cells) were plated into each well using the Biotek MicroFlo™ Select Dispenser (BioTek Instruments, Inc. Vermont, USA),) of the 384-well plate. Plates were incubated at 37° C./5% CO2 for 72 hrs. One of the duplicate plates was processed for HeLa assay and the other for viability. 5 μL of Cell-Histone Lysis buffer (1×) (Catalog #AL009F1 Perkin Elmer; Waltham, Mass.) per well was added to the plate processed for AlphaLISA and the plate was incubated at RT for 30 minutes on a plate shaker with low speed (Model# 4625-Q Thermo Scientific; Waltham, Mass.). Then, 10 μL per well Histone Extraction buffer (catalog #AL009F2; Perkin Elmer; Waltham, Mass.) was added and the plate further incubated at RT for 20 min on plate shaker with low speed. Next, 10 μL of 5× mix of anti-K27me3 acceptor beads plus Biotinylated anti-Histone H3 (C-ter) Antibody (diluted to 3 nM final) (Catalog #AL118 Perkin Elmer; Waltham, Mass.) was added in each well. Dilution of the acceptor beads and anti-Histone H3 was done in 1× Histone Detection buffer (Catalog #AL009F3 Perkin Elmer; Waltham, Mass.) which was produced by diluting the 10× stock provided. The plate was sealed with an aluminum plate sealer and incubated at 23° C. for 60 min. Next, 10 μL 5× solution of Streptavidin Donor beads were added (Catalog #6760002 Perkin Elmer; Waltham, Mass.) (20 μg/mL final in 1× Histone Detection Buffer), =plate was sealed with Aluminum plate sealer and incubated at 23° C. for 30 min. The plates were then read using an EnVision-Alpha Reader (model #2104 Perkin Elmer; Waltham, Mass.). […]

Karpas-422 cell lines = assay: Karpas-422 viability assay (Cell Titer-Glo, Day 8); format: cell-based; conditions: Cell Titer-Glo on Day 8
Experimental: Karpas-422 cell lines were obtained from DSMZ (Braunschweig, Germany) and were grown in RPMI-1640 media. All media contained 10% fetal bovine serum (FBS) and 1% penicillin/streptomycin (Invitrogen). 20K cells per well were plated onto 96 well compound coated plates. Cells were split and seeded at original plating density (based on the DMSO well counts) every 4 days into plates containing fresh EZH2 inhibitors. Relative cell numbers were assessed by Cell Titer-Glo luminescent cell viability assay (Promega) on Day 8. GraphPad Prism 5 was used for curve fitting and GI50 values were reported.

[1] = Cellular permeability in MDCK assay; format: in vitro ADME; conditions: dog, pH 7.4, MDCK II, with P-gp inhibitor GF120918 10 μM; for efflux ratio at 2.5 h, 2 μM: Papp(BA)/Papp(AB)
Experimental: Cell culture: MDCK II cells (obtained from Piet Borst at the Netherlands Cancer Institute) were seeded onto […] (PET) in 96-well BD insert systems at 2.5×10^5 cells/mL until to 4-7 days for confluent cell monolayer formation.
Experimental procedure: Test and reference compounds (nadolol, metoprolol and digoxin) were diluted with transport buffer (HBSS with 10mM Hepes, pH7.4) from stock solution to a concentration of 2 μM (<1% DMSO) and applied to the apical (A) or basolateral (B) side of the cell monolayer. Permeation of the test compounds from A to B direction or B to A direction was determined in duplicate with P-gp inhibitor (GF120918, 10 μM). Digoxin was tested at 10 μM from A to B direction or B to A direction with/without P-gp inhibitor (GF120918, 10 μM) as well, while nadolol and metoprolol were tested at 2 μM in A to B direction without P-gp inhibitor (GF120918, 10 μM) in duplicate. The plate was incubated for 2.5 hours in CO2 incubator at 37±1° C., with 5% CO2 at saturated humidity without shaking. In addition, the efflux ratio of each compound was also determined. Test and reference compounds were quantified by LC/MS/MS analysis based on the peak area ratio of analyte/IS. After transport assay, Lucifer yellow rejection assay are applied to determine the cell monolayer integrity. Buffers are removed from both apical and basolateral chambers, followed by the addition of 75 μL of 100 μM lucifer yellow in transport buffer and 250 μL transport buffer in apical and basolateral chambers, respectively. The plate is incubated for 30 minutes at 37° C. with 5% CO2 and 95% relative humidity without shaking. After 30 minutes incubation, 20 μL of lucifer yellow samples are taken from the apical sides, followed by the addition of 60 μL of Transport Buffer. And then 80 μL of lucifer yellow samples are taken from the basolateral sides. The relative fluorescence unit (RFU) of lucifer yellow is measured at 425/528 nm (excitation/emission) with a Molecular Device M2e plate reader.
Data analysis: The apparent permeability coefficient Papp (cm/s) was calculated using the equation: Papp=(dCr/dt)×Vr/(A×C0) Where dCr/dt is the cumulative concentration of compound in the receiver chamber as a function of time (μM/s); Vr is the solution volume in the receiver chamber (0.075 mL on the apical side, 0.25 mL on the basolateral side); A is the surface area for the transport, i.e. 0.0804 cm2 for the area of the monolayer; C0 is the initial concentration in the donor chamber (μM).
The efflux ratio was calculated using the equation: Efflux Ratio=Papp(BA)/Papp(AB) Percent recovery was calculated using the equation: % Recovery=100×[(Vr×Cr)+(Vd×Cd)]/(Vd×C0) Where Vd is the volume in the donor chambers (0.075 mL on the apical side, 0.25 mL on the basolateral side); Cd and Cr are the final concentrations of transport compound in donor and receiver chambers, respectively.
Percent of lucifer yellow in basolateral well is calculated using the equation:
[formula] where RFUApical and RFUBasolateral are the relative fluorescence unit values of lucifer yellow in the apical and basolateral wells, respectively; VApical and VBasolateral are the volume of apical and basolateral wells (0.075 mL and 0.25 mL), respectively. Percent lucifer yellow should be less than 2.

[2] = Homo sapiens, KARPAS-422, 192 h

Chain of PRC2 containing wt EZH2 (Q15910 whole entry): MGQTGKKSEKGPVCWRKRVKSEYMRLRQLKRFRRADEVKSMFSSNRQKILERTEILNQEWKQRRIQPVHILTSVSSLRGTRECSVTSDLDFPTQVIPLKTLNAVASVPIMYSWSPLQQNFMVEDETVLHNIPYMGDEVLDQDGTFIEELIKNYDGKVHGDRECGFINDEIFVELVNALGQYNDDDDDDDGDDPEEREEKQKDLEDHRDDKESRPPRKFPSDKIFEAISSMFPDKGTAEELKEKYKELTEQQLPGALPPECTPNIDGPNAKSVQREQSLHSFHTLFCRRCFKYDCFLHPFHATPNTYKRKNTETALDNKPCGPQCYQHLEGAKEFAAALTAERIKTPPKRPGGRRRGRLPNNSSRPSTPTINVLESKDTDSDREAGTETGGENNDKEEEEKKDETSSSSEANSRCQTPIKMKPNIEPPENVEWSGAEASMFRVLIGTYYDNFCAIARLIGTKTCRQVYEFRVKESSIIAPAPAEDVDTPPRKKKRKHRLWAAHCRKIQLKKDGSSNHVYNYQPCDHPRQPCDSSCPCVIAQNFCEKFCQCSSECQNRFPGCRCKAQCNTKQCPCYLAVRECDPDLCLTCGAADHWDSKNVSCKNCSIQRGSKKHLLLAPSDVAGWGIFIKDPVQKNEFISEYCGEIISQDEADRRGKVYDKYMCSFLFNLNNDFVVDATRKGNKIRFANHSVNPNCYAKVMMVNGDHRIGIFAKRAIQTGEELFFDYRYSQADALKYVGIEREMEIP
Chain of PRC2 containing wt EZH2 (O75530 whole entry partner): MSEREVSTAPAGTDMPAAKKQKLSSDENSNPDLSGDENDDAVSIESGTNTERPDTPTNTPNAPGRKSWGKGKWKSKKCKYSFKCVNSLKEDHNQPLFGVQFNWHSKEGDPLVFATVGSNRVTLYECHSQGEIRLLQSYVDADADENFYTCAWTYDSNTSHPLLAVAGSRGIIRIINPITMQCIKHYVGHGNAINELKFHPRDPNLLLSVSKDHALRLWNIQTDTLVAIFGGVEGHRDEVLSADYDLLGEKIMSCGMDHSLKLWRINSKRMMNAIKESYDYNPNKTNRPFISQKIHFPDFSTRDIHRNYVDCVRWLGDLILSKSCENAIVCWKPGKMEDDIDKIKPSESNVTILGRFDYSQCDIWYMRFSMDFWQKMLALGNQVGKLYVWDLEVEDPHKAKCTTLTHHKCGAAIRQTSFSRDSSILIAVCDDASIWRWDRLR
Chain of PRC2 containing wt EZH2 (Q15022 whole entry partner): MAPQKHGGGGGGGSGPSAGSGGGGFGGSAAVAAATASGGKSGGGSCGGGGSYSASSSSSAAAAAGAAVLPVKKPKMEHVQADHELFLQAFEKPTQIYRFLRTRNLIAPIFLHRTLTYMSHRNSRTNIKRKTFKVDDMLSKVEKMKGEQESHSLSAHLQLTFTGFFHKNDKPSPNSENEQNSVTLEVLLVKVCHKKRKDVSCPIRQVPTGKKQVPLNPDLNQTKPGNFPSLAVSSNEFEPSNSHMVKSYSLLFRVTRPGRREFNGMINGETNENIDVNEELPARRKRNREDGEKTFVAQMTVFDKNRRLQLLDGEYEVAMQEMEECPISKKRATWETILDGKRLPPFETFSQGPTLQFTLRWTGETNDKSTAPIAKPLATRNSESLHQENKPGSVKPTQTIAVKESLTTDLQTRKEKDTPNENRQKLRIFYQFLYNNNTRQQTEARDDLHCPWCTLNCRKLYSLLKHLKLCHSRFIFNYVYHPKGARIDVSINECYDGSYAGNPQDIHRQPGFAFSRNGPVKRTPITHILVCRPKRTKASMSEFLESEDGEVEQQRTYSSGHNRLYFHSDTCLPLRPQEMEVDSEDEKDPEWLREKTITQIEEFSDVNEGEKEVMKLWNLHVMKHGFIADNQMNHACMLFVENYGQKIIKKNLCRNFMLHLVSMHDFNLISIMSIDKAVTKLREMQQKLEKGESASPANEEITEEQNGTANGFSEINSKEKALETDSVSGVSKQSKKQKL
Chain of PRC2 containing wt EZH2 (Q09028 whole entry partner): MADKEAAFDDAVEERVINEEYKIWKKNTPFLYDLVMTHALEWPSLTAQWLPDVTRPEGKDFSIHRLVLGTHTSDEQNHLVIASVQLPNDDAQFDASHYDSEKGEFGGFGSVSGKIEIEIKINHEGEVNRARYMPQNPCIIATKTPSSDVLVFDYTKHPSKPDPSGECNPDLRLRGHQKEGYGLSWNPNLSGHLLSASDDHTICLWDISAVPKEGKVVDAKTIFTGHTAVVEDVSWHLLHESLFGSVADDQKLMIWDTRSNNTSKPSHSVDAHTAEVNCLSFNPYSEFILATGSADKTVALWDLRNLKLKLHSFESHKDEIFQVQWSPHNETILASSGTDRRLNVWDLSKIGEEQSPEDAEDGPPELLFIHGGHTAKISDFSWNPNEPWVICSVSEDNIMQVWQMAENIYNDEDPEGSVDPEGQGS
Chain of PRC2 containing wt EZH2 (Q6ZN18 whole entry partner): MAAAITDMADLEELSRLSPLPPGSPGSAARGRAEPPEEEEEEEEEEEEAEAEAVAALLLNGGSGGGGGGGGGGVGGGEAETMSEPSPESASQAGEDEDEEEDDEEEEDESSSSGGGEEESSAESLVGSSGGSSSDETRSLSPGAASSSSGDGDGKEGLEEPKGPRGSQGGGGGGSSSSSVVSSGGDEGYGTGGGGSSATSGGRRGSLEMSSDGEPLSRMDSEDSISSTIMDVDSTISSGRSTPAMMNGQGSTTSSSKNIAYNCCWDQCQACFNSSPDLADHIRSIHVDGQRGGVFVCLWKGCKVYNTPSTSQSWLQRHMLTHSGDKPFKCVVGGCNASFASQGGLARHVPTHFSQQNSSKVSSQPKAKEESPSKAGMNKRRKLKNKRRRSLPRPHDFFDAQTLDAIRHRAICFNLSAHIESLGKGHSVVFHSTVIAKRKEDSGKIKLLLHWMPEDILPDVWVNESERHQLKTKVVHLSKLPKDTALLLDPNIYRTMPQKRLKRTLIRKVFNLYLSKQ

| Structure (SMILES) | IC50 (PRC2 containing wt EZH2) | EC50 (H3K27me3 in Hela cells; 72 hrs) | GI50 (Karpas-422 cell lines) | EC50 (H3K27me3 in Hela cells; Homo sapiens, HeLa, 72 h) | GI50 (Karpas-422 cell lines; [2]) | Papp at 2.5 h, 2 μM [1] | efflux ratio at 2.5 h, 2 μM [1] |
| --- | --- | --- | --- | --- | --- | --- | --- |
| CSc1cc(C)[nH]c(=O)c1CNC(=O)c1cc(Cl)c2c(c1C)OC(C)(C1CCC(NC3(C(F)(F)F)COC3)CC1)O2 (single isomer, unassigned) [Example 6-Enantiomer 2] | 0.14 nM | 4.2 nM | 53 nM |  |  |  |  |
| CSc1cc(C)[nH]c(=O)c1CNC(=O)c1cc(Cl)c2c(c1C)OC(C)(C1CCC(NC3(CF)COC3)CC1)O2 (single isomer, unassigned) [Example 11 (geometric isomer 2)] | 0.18 nM | 1.7 nM |  |  |  |  |  |
| CSc1cc(Cl)[nH]c(=O)c1CNC(=O)c1cc(Cl)c2c(c1C)OC(C)(C1CCC(N3CC(OC(F)F)C3)CC1)O2 (single isomer, unassigned) [Example 2] | 1.5 nM |  |  | 15 nM | 250 nM |  |  |
| CSc1cc(C)[nH]c(=O)c1CNC(=O)c1cc(Cl)c2c(c1C)OC(C)(C1CCN(CC(F)(F)F)CC1)O2 (single isomer, unassigned) [Example 14-Enantiomer 1, 7-chloro-2,4-dimethyl-N-((6-methyl-4-(methylthio)-2-oxo-1,2-dihydropyridin-3-yl)methyl)-2-(1-(2,2,2-trifluoroethyl)piperidin-4-yl)benzo[d][1,3]dioxole-5-carboxamide] | 0.037 nM | 1.4 nM |  |  |  |  |  |
| CSc1cc(Cl)[nH]c(=O)c1CNC(=O)c1cc(Cl)c2c(c1C)O[C@@](C)([C@H]1CC[C@H](N(C)C)CC1)O2 [Example 3, (R)-7-chloro-N-((6-chloro-4-(methylthio)-2-oxo-1,2-dihydropyridin-3-yl)methyl)-2-(trans-4-(dimethylamino)cyclohexyl)-2,4-dimethylbenzo[d][1,3]dioxole-5-carboxamide] | 0.37 nM |  |  | 2.4 nM | 29 nM | 3.7 ×10⁻⁶ cm/s | 1.2 |
| CSc1nc(C)[nH]c(=O)c1CNC(=O)c1cc(Cl)c2c(c1C)O[C@@](C)([C@H]1CC[C@H](N(C)C)CC1)O2 [Example 5] | 0.054 nM |  |  | 3.6 nM | 22 nM | 1.1 ×10⁻⁶ cm/s | 3.6 |
| Cc1cc(Cl)c(CNC(=O)c2cc(Cl)c3c(c2C)OC(C)(C2CCN(CC(F)(F)F)CC2)O3)c(=O)[nH]1 (single isomer, unassigned) [Example 16-Enantiomer 2, 7-chloro-N-((4-chloro-6-methyl-2-oxo-1,2-dihydropyridin-3-yl)methyl)-2,4-dimethyl-2-(1-(2,2,2-trifluoroethyl)piperidin-4-yl)benzo[d][1,3]dioxole-5-carboxamide] | > 10 nM | > 300 nM |  |  |  |  |  |
| CSc1cc(C)[nH]c(=O)c1CNC(=O)c1cc(Cl)c2c(c1C)OC(C)(C1CCC(N3CC(F)(F)C3)CC1)O2 (single isomer, unassigned) [Example 7-Enantiomer 1] | 8.6 nM |  |  |  |  |  |  |
| CSc1cc(C)[nH]c(=O)c1CNC(=O)c1cc(Cl)c2c(c1C)OC(C)(C1CCN(CC(F)(F)F)CC1)O2 (single isomer, unassigned) [Example 14-Enantiomer 2, 7-chloro-2,4-dimethyl-N-((6-methyl-4-(methylthio)-2-oxo-1,2-dihydropyridin-3-yl)methyl)-2-(1-(2,2,2-trifluoroethyl)piperidin-4-yl)benzo[d][1,3]dioxole-5-carboxamide] | 7 nM | 210 nM |  |  |  | 13 ×10⁻⁶ cm/s | 0.56 |
| CSc1cc(C)[nH]c(=O)c1CNC(=O)c1cc(Cl)c2c(c1C)OC(C)(C1CCC(NC3(CF)COC3)CC1)O2 (single isomer, unassigned) [Example 11 (geometric isomer 1)] | 0.14 nM |  |  | 1.3 nM | 8.6 nM | 5.3 ×10⁻⁶ cm/s | 1.3 |
| Cc1cc(Cl)c(CNC(=O)c2cc(Cl)c3c(c2C)OC(C)(C2CCN(CC(F)(F)F)CC2)O3)c(=O)[nH]1 (single isomer, unassigned) [Example 16-Enantiomer 1, 7-chloro-N-((4-chloro-6-methyl-2-oxo-1,2-dihydropyridin-3-yl)methyl)-2,4-dimethyl-2-(1-(2,2,2-trifluoroethyl)piperidin-4-yl)benzo[d][1,3]dioxole-5-carboxamide] | 0.31 nM | 22 nM |  |  |  |  |  |
| CSc1cc(C)[nH]c(=O)c1CNC(=O)c1cc(Cl)c2c(c1C)OC(C)(C1CCC(NC3(C(F)(F)F)COC3)CC1)O2 (single isomer, unassigned) [Example 6-Enantiomer 1, 7-chloro-2,4-dimethyl-N-((6-methyl-4-(methylthio)-2-oxo-1,2-dihydropyridin-3-yl)methyl)-2-(4-((3-(trifluoromethyl)oxetan-3-yl)amino)cyclohexyl)benzo[d][1,3]dioxole-5-carboxamide] | 1.8 nM | 39 nM | 720 nM |  |  |  |  |
